Data published in US20070122377A1, “Compositions and methods of treatment” (priority 2003, published 2007).

Experiments:
[1] = system: U937 cells; experiment: Release of IL-10 protein from U937 monocytes in response to PGE and GMCSF (Example 3, FIG. 4); assay type: cell-based, human
Procedure: Cells were treated for 4 hours with the agents indicated below the graph, washed to remove the treatment and incubated for a further 20 hours before the medium was assayed for IL-10. PGE refers to prostaglandin E2, and GM refers to GMCSF.
U937 cells were grown in RPMI (PAA Laboratories) medium with 10% foetal calf serum (PAA Laboratories) added.

[2] = system: U937 cells; experiment: IL-10 ELISA in U937 cells, prostaglandins in presence and absence of rolipram (Examples 5 and 6, FIGS. 7 and 8); assay type: cell-based, human
Procedure: U 937 cells were grown in RPP (PAA Laboratories) medium with 10% fetal calf serum added (PAA Laboratories). 2×10^6 cells per flask were treated with prostaglandin E2 at 10^−6 Molar or with Rolipram (4×10^−6) for 24 hours. Medium was removed at 20 hours and analysed by ELISA. A capture antibody (Pharmingen) was coated onto 96 well plates and culture medium was added each well. A standard curve was created with recombinant IL-10 protein. After incubation and washing, a biotin labelled monoclonal antibody (Pharmingen) was added and following incubation and washing, peroxidase labelled streptavidin was added. After washing a tetramethyl benzidine substrate was added and colour developed in proportion to IL-10 in the original sample/standard. Colour was read using a plate photometer (Labsystems, Multiskan). Mean concentrations (N=3) in controls with no lipopolysaccharide (LPS) were 38.2 pg/ml and in the presence of LPS (100 nM) they were 43.9 […].
The effect of PGE1, PGE2, 19 hydroxy PGE1 and 19 hydroxy PGE2 on the stimulation of IL-10 in the presence and absence of rolipram was investigated as described above in Example 5. IL-10 levels were measured using an ELISA assay (R&D Ltd, Oxford). Measurement was performed according to the manufacturer's instructions.

[3] = system: U937 cells; experiment: phosphodiesterase IV-b mRNA in U937 cells (Example 7, FIG. 9); assay type: cell-based, human; conditions: four hours of incubation; PGE 1×10^-6, 19-hydroxy PGE2 5×10^-6
Procedure: After the incubation (20 hours), cells were pelleted and the mRNA was extracted with Tri-reagent (Sigma, Poole, UK). Total RNA was obtained by addition of chloroform and subsequent isopropanol precipitation. RNA was reverse transcribed with reverse transcriptase (Applied Biosystems) and random hexamers (Applied Biosystems). Probes and primers for IL-10 and IL-12 (p35) were designed using Primer Express (Applied Biosystems) and were as follows:
Template was amplified in a Taqman 7700 machine for 40 cycles using FAM/TAMRA dyes on the probe. The Applied Biosystems kit was used to amplify and detect ribosomal (18S) RNA (using VIC/TAMRA dyes) as an internal control in the same reaction tube. After 40 cycles the Ct (related to cycle number at which signal appears) for the FAM and the 18S (VIC) were recorded and […] relative quantitation was achieved using the formula 2^−ΔΔCt where Δ refers to the difference between the FAM and VIC signal related to an standard comparator included in each run.
The mRNA for phosphodiesterase IV-b was measured as described in Example 5 above. mRNA was extracted after four hours of incubation. The concentration of the PGE was 1×10^−6 and that of the 19-hydroxy PGE2 was 5×10^−6. The following primers and Taqman probe were used for quantitation of PDE IV b mRNA.

[4] = system: type IV PDE; conditions: cited from earlier work; for IC50: type IV PDE selective inhibitor
[5] = system: U937 cells; experiment: IL-10 and TNFα mRNA in U937 cells after differentiating agents (Example 9, FIG. 13); assay type: cell-based, human
Procedure: U937 (human monocyte cell line) cells were grown in RPMI (PAA Laboratories) medium with 10% fetal calf serum added (PAA Laboratories). Cells were treated with prostaglandin E2 at 10^−6 Molar, Rolipram 10^−6 Molar, Forskolin 50×10^−6 Molar with or without GMCSF at 5 ng/ml for 48 hours. Cells were pelleted and the mRNA was extracted with Tri reagent (Sigma, Poole, UK). Total RNA was obtained by addition of chloroform and subsequent isopropanol precipitation. RNA was reverse transcribed with reverse transcriptase (Applied Biosystems) and random hexamers (Applied Biosystems). Probes and primers for amplification and detection of IL-10 were designed using Primer Express (Applied Biosystems) and are as follows:
As for Example 4 but MRNA for TNFα is also included.
Data is shown as the ratio of IL-10 mRNA/TNFα mRNA. P=PMA=Phorbol myristoyl acetate; F=Fsk=Forskolin g=GMCSF, C=vehicle control.

[6] = system: PDE; conditions: non-specific PDE inhibitor; cited from earlier work
[7] = cited from earlier work

## 19-hydroxy PGE2
[1]
  stimulation of IL-10 in the presence of GMCSF: increased strikingly
[2]
  stimulation of IL-10 in the presence of a PDE inhibitor: increased strikingly
[3]
  PDE activity / PDE message (phosphodiesterase IV-b mRNA): increase

## COc1ccc(C2CNC(=O)C2)cc1OC1CCCC1 (stereo not shown) [rolipram, 4-[3-cyclopentyloxy-4-methoxyphenyl]-2-pyrrolidinone]
[4]
  IC50: 0.8 µM

## CCCCOc1cc(CC2CNC(=O)N2)ccc1OC (stereo not shown) [Ro-20-1724, 4-[3-butoxy-4-methoxybenzyl]-2-imidazolidinone]
[4]
  IC50: 2 µM

## Cn1c(=O)c2[nH]cnc2n(C)c1=O [theophylline]
[4]; non-selective inhibitor compared with type IV selective rolipram
  times less effective than rolipram: 30 times

## CCCCCCCCCCCCCC(=O)O[C@@H]1[C@@H](C)[C@@]2(O)[C@@H](C=C(CO)C[C@]3(O)C(=O)C(C)=C[C@@H]23)[C@@H]2C(C)(C)[C@]12OC(C)=O [PMA, Phorbol myristoyl acetate]
[5]; PMA 2×10^-7 M as differentiating agent
  IL-10 mRNA: increased
[5]; differentiation with the agent
  TNFα mRNA: increased

## CC(C)Cn1c(=O)n(C)c(=O)c2[nH]cnc21 [IBMX, 3-isobutyl-1-methylxanthine]
[6]
  IC50: 2 to 50 µM

## CCCCC[C@H](O)/C=C/[C@H]1[C@H](O)CC(=O)[C@@H]1C/C=C\CCCC(=O)O [PGE, prostaglandin E2]
[1]
  stimulation of IL-10 in the presence of GMCSF: increased strikingly
[2]
  stimulation of IL-10 in the presence of a PDE inhibitor: increased strikingly
[3]
  PDE activity / PDE message (phosphodiesterase IV-b mRNA): increase

B1: GM-CSF: Murine Granulocyte macrophage colony stimulating factor from Peprotech, catalog number 315-03 (protein, UniProt P01587 18-141, looked up)
Granulocyte-macrophage …: APTRSPITVTRPWKHVEAIKEALNLLDDMPVTLNEEVEVVSNEFSFKKLTCVQTRLKIFEQGLRGNFTKLKGALNMTASYYQTYCPPTPETDCETQVTTYADFIDSLKTFLTDIPFECKKPGQK
[7]
  solubility in aqueous solution: Freely soluble
